One test concerns Micrococcus luteus. As to the kind of experiment: Antibiotic activity, filter paper disc agar diffusion MIC. It is filed as cell-based. Conditions: filter paper discs on agar, 15 hours at 28°C. The procedure:
The compounds of Formulae I, II, and IV and virginiamycin M₁ from Example 2 were assayed for antibiotic activity following a method described by Matsen and Barry, Manual of Clinical Microbiology, Lennette, Spaulding, and Truant, Eds., American Society for Microbiology, Washington, D.C., p. 418 (1974). The minimal inhibitory concentrations (MIC) were determined by applying serial dilutions of the compounds of Formulae I, III, and IV and virginiamycin M₁ to standard filter paper discs. The concent↑ation of the test compounds ↑anged f↑om […] to 3.0 µg per disc in 20 µl of diluent. The test organism, Micrococcus luteus, was innoculated on the surface of an agar based nutrient medium in petri plates and the discs placed on the surface of the medium. The nutrient media consisted of nutrient broth supplemented with 0.2% yeast extract and 1.5% agar. The innoculated plates were incubated for 15 hours at 28°C and the zones of inhibition determined. The MIC of each compound was determined by the method described in Matsen and Barry, supra.
A general note: In agar diffusion tests the substance spreads into inoculated agar from a disc or well.

Another test has as its target T1, Gastrin Receptor (Cavia porcellus, UniProt H0VZC5).
T1 construct: from tissue; host or cells: guinea pig gastric mucosal glands
T1 sequence (H0VZC5 1-426): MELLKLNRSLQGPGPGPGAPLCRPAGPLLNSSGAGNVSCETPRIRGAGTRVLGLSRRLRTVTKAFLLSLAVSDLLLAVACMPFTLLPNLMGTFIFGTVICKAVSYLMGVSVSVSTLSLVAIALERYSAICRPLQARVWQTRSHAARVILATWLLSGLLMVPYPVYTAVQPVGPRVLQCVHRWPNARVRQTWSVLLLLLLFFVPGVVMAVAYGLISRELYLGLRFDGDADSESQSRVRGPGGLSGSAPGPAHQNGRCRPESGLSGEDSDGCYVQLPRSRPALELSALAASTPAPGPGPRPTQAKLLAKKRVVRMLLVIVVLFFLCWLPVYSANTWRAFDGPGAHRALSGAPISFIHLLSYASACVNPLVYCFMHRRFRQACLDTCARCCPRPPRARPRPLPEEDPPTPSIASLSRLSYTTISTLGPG
The test can be described thus: Gastrin receptor binding in guinea pig gastric glands (125I-gastrin). Conditions: ¹²⁵I-gastrin, 25°C for 30 minutes, read-out: IC₅₀. How it is done: Guinea pig gastric mucosal glands were prepared by the procedure of Praissman et al., J. Receptor Res. 3:647 (1983). Stomachs from male Hartley guinea pigs (250-400 g body weight) were washed thoroughly and minced with fine scissors in HEPES buffer consisting of the following: 130 mM NaCl, 12 mM NaHCO₃, 3 mM NaH₂PO₄, 3 mM […], 3 mM K₂HPO₄, 2 mM MgSO₄, 1 mM CaCl₂, 5 mM glucose and 4 mM L-glutamine, 25 mM HEPES at pH 7.4. The minced tissues were washed and incubated in a 37°C shaker bath for 40 minutes, with HEPES buffer containing 0.1% collagenase and 0.1% bovine serum albumin (BSA), and bubbled with 95% O₂ and 5% CO₂. The tissues were passed twice through a 5 ml glass syringe to liberate the gastric glands, and then filtered through 200 mesh nylon. The filtered glands were centrifuged at 270 ^x g for 5 minutes and washed twice by resuspension and centrifugation.
The washed guinea pig gastric glands were resuspended in 25 ml of HEPES buffer containing 0.25 mg/ml of bacitracin. For binding studies, 14.2 µl of 50% MeOH/H₂O (for total binding) or gastrin (1 µM final concentration, for nonspecific binding) or broth or test compound from Examples 2, 3 or 4 and 20 µl of ¹²⁵I-gastrin (New England Nuclear [NEN], 20,000 cpm 20 µl) were added to 220 µl of gastric glands in triplicate tubes which were aerated with 95% O₂ and 5% CO₂ and capped. The reaction mixtures, after incubation at 25°C for 30 minutes in a shaking water bath, were filtered under reduced pressure on glass GF/B filters (Whatman) and immediately washed with 3 ^x 4 ml of HEPES buffer containing 0.1% BSA fraction V. The radioactivity on the filters was measured using a Beckman 5500 gamma counter for ¹²⁵I-gastrin.

SMILES strings stand for the structures. ≈ marks a conversion by molar mass, not a printed value.

By MIC is commonly meant the lowest concentration found to suppress growth. A higher MIC goes with a need for much substance.

With `CC1=C\C=C\[C@@H](O)Cc2nc(co2)C(=O)N2CCC=C2C(=O)O[C@H](C(C)C)[C@H](C)/C=C/C(=O)NC\C=C\1` [Compound I], 90 µM (≈ 45.9 µg/mL) was the least that counted as inhibitory against Micrococcus luteus (MIC). Further, the IC50 at Gastrin Receptor amounted to 12 nM. The matching figures for `CC1=C\CCC(=O)Cc2nc(co2)C(=O)N2CCC=C2C(=O)O[C@H](C(C)C)[C@H](C)/C=C/C(=O)NC\C=C\1` [IV]: 15 µM (≈ 7.64 µg/mL) and 360 nM.

For `CC1=C\C=C\[C@H](O)Cc2nc(co2)C(=O)N2CCC=C2C(=O)O[C@H](C(C)C)[C@H](C)/C=C/C(=O)NC\C=C\1` [Compound II], at Gastrin Receptor, the IC50 was determined as 13 nM. As to `CC1=C\[C@@H](O)CC(=O)Cc2nc(co2)C(=O)N2CCC=C2C(=O)O[C@H](C(C)C)[C@H](C)/C=C/C(=O)NC\C=C\1` [Virginiamycin M₁, reference compound], in the test with Micrococcus luteus, the MIC worked out at 1.5 µM (≈ 0.788 µg/mL). Also, the IC50 at Gastrin Receptor amounted to 710 nM.

As to `CC1=C\C=C\C(=O)Cc2nc(co2)C(=O)N2CCC=C2C(=O)O[C@H](C(C)C)[C@H](C)/C=C/C(=O)NC\C=C\1` [Compound III], the minimal inhibitory concentration (MIC) in the test with Micrococcus luteus worked out at 250 µM (≈ 127 µg/mL). The IC50 at Gastrin Receptor worked out at 90 nM.

(Values after patent publication EP0269322B1, “Virginiamycin analogs” (Merck & Co., Inc., priority 1986, dated 1988).)
